Experimental findings from ChEMBL document CHEMBL2385017, “Selective Inhibitors of Fibroblast Activation Protein (FAP) with a (4-Quinolinoyl)-glycyl-2-cyanopyrrolidine Scaffold” (ACS Med Chem Lett, 2013) are described below.

Data set [1] in a line: Metabolic stability in human plasma by LC/MS/MS analysis. As to conditions: read-out: Stability (converted). The data set is classed as ADME, cell-free.
Data set [2] in a line: Metabolic stability in mouse plasma after 24 hrs by LC/MS/MS analysis. Format: ADME, cell-free. As to conditions: read-out: Stability.
Data set [3] in a line: Chemical stability in PBS buffer at pH 7.4. The data set is classed as physicochemical.
The next data set deals with Dipeptidyl peptidase 2 (Homo sapiens, UniProt Q9UHL4). The data set can be described thus: Inhibition of DPP2 in human seminal plasma using Lys-Ala-p-nitroanilide as substrate incubated for 15 mins prior to substrate addition.
A short description of data set [4]: Metabolic stability in mouse liver microsomes after 24 hrs by LC/MS/MS analysis. Format: ADME, Microsome. As to conditions: read-out: Stability.
Another data set has as its target T1, Prolyl endopeptidase FAP (Mus musculus, UniProt P97321).
T1 sequence (P97321 whole entry): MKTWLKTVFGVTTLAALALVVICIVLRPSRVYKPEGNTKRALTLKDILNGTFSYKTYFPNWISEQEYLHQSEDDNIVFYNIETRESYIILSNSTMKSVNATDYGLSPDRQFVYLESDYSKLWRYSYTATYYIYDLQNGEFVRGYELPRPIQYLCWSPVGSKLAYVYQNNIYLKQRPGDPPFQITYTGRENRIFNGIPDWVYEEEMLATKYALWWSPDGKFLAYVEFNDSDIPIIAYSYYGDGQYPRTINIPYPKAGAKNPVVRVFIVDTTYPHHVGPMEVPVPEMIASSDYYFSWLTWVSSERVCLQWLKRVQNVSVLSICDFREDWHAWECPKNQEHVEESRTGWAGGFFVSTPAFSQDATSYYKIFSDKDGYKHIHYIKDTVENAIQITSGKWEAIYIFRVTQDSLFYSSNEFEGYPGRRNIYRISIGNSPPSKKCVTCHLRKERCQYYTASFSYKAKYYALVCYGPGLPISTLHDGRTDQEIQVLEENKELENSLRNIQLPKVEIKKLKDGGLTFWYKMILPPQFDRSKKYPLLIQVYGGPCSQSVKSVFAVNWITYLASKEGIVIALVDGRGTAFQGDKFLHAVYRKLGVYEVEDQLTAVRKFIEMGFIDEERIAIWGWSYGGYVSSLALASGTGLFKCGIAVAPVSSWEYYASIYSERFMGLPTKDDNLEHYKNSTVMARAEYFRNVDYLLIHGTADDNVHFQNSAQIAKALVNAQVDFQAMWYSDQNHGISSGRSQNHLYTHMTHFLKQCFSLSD
Briefly: Inhibition of mouse recombinant FAP expressed in HEK293 cells using Ala-Pro-p-nitroanilide as substrate incubated for 15 mins prior to substrate addition.

The target of the next data set is T2, Prolyl endopeptidase (Homo sapiens, UniProt P48147).
T2 sequence (P48147 whole entry): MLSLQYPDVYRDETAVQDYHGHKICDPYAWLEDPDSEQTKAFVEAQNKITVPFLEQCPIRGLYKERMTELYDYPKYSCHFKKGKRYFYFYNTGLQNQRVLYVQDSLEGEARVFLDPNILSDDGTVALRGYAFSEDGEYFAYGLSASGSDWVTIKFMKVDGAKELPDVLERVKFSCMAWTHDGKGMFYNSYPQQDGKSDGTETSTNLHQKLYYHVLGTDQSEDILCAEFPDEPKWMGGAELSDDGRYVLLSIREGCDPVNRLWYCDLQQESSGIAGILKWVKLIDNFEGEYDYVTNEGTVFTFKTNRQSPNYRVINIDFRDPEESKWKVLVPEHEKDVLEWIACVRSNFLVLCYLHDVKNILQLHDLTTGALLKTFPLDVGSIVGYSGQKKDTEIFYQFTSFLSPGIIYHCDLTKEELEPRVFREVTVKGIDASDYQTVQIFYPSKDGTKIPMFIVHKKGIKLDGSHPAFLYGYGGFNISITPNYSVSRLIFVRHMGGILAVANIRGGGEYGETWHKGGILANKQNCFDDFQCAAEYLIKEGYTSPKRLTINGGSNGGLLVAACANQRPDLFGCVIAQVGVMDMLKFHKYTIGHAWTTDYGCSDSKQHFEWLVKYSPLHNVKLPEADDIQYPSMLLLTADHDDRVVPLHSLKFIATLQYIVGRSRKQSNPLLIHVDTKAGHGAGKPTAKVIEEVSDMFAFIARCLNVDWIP
The data set can be described thus: Inhibition of human recombinant PREP expressed in Escherichia coli using Z-Gly-Pro-p-nitroanilide as substrate incubated for 15 mins prior to substrate addition.

Data set [5] in a line: Inhibition of DPP9 in bovine testis using Ala-Pro-p-nitroanilide as substrate incubated for 15 mins prior to substrate addition. Also on record: species or system Bos taurus.
Data set [6] can be described thus: Octanol-PBS partition coefficient, log D of the compound at pH 7.4 after 2 hrs. The data set is classed as physicochemical.
The target in the next data set is Dipeptidyl peptidase 4 (Homo sapiens, UniProt P27487). Also on record: species or system Plasma.
Data set [7] in a line: Kinetic solubility of the compound in PBS buffer at pH 7.4 after 2 hrs by turbidimetric method. Format: physicochemical. As to conditions: read-out: Kinetic_solubility.
Data set [8] can be described thus: Metabolic stability in rat plasma by LC/MS/MS analysis. As to conditions: read-out: Stability. The data set is classed as ADME, cell-free.

Dipeptidyl peptidase 4, sequence (P27487 whole entry): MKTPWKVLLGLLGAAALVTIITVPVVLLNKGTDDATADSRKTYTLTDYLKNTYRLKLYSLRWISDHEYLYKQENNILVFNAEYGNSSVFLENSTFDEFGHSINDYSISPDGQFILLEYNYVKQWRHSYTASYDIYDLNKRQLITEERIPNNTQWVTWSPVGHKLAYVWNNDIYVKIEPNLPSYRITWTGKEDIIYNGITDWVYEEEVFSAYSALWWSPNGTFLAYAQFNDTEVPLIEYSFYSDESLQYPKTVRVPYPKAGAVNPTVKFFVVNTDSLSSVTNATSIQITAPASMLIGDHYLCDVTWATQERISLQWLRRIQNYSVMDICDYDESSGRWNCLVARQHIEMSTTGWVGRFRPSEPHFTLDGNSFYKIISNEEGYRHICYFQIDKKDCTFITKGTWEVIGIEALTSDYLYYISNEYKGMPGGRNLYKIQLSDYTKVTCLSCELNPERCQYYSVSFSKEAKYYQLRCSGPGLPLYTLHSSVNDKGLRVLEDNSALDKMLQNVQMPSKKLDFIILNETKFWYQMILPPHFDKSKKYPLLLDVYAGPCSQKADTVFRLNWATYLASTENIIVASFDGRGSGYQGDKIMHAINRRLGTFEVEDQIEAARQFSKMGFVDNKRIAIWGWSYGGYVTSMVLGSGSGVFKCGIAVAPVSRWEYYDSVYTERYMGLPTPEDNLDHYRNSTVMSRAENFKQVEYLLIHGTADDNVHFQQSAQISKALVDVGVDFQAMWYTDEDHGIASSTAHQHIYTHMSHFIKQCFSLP

Take `N#C[C@@H]1CCCN1C(=O)CNC(=O)c1ccnc2cccc(Br)c12`: the half-life in data set [1] is 24 h. Moreover, the remaining at 24 h in data set [2] came out at 80%; in data set [4], 70%. In [3], this compound returned a Stability of 24 h. In addition, the 50% inhibitory concentration (IC50) on Dipeptidyl peptidase 2 is above 100 µM; on Prolyl endopeptidase, above 50 µM; in [5], above 100 µM; against Dipeptidyl peptidase 4, above 100 µM. Besides, the Ki at Prolyl endopeptidase FAP is 0.0041 µM. Further, the logD at 2 h in data set [6] was found to be 0.7. Besides, the solubility kinetic at 2 h in [7] was above 200 µM.
In the case of `N#C[C@@H]1CCCN1C(=O)CNC(=O)c1ccnc2ccccc12`, the Stability in data set [3] is above 24 h. Besides, the IC50 (in data set [5]; on Dipeptidyl peptidase 4) was above 100 µM each time. Moreover, the half-life in data set [8] is above 24 h. The solubility kinetic at 2 h in data set [7] is above 200 µM.
